Biological target: FASN enzyme (Homo sapiens, UniProt P49327)
Experiment: Enzymatic Assay for FASN Inhibitors
Format: biochemical
Settings: not given
How it was run: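 40 nM FASN preincubated with compound 60 min at 25° C in HEPES pH 7.3 buffer with 0.04% Triton X-100. Then 20 μM acetyl-CoA, 60 μM malonyl-CoA and 100 μM NADPH added for 90 min, quenched with CPM thiol probe; fluorescence 360/530 nm, IC50 by four-parameter fit.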

Sequence of FASN enzyme (P49327 whole entry): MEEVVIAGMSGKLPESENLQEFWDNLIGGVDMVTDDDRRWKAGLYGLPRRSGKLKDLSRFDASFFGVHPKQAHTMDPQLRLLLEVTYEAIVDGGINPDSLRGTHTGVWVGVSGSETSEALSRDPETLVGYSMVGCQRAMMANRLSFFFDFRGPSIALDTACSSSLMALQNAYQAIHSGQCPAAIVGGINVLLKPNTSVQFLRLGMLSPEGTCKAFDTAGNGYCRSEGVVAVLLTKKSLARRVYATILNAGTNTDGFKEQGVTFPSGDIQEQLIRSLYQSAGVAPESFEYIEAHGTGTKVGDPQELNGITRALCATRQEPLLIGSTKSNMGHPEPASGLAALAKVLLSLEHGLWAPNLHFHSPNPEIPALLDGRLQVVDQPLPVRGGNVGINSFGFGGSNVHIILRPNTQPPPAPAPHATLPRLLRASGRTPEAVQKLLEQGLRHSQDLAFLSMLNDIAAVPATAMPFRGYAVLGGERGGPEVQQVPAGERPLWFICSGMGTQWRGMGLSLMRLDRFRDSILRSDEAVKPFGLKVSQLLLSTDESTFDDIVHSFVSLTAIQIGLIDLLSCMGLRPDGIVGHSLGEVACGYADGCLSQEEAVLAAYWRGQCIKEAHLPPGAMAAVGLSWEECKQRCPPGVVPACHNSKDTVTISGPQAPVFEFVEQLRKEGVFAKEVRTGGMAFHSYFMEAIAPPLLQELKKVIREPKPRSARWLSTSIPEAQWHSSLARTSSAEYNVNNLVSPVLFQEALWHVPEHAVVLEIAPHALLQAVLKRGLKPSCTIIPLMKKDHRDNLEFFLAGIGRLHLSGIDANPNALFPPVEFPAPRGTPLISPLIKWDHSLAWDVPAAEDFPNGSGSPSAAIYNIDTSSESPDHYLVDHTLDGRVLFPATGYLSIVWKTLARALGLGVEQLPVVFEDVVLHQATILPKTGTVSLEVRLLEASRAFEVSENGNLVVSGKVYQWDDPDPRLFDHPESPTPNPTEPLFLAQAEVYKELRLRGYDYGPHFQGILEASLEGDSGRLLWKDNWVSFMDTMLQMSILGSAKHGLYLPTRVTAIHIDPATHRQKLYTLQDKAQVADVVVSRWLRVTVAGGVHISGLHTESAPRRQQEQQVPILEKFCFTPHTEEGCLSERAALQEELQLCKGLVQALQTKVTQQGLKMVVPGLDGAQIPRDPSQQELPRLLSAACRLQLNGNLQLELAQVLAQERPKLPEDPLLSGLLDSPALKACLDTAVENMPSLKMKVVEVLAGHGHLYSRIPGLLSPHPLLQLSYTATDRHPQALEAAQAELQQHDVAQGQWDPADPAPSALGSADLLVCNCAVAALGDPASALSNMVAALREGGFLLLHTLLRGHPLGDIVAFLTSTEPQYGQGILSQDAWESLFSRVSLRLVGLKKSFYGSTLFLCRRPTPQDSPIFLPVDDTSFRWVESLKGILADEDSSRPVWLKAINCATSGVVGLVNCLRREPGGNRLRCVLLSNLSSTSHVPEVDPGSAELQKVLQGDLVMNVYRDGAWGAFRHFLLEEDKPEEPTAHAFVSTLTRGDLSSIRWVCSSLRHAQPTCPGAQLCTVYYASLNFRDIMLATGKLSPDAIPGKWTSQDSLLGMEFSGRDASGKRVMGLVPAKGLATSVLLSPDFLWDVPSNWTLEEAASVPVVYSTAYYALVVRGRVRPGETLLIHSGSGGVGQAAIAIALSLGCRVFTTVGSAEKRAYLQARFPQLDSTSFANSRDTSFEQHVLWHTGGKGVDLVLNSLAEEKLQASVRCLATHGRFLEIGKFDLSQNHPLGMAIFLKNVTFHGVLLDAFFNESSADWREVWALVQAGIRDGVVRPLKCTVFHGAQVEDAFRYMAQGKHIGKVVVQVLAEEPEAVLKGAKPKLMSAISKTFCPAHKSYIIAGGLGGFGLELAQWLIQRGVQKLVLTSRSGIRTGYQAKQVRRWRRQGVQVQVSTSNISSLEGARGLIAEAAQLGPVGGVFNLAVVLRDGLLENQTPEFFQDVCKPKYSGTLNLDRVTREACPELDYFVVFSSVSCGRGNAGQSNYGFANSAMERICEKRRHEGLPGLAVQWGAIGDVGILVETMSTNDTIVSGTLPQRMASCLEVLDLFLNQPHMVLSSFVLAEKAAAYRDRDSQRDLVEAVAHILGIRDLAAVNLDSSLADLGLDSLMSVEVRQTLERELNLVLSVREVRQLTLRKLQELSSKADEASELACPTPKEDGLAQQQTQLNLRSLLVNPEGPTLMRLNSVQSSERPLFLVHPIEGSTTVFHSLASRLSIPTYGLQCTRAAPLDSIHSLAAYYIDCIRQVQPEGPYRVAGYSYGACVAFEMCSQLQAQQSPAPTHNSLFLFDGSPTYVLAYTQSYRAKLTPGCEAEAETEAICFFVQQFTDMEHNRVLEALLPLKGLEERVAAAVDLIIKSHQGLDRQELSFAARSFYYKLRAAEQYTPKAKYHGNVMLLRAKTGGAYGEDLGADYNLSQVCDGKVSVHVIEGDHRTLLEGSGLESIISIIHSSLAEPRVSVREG

| IC50 [µM] | SMILES |
| --- | --- |
| < 0.5 | Nc1cc(-c2cccc(-c3ccc(C(=O)N4CCN(C(=O)C5(N)CC5)CC4)c(F)c3)c2)no1 [3-(3-{4-[4-(1-aminocyclopropanecarbonyl)piperazine-1-carbonyl]-3-fluorophenyl}phenyl)-1,2-oxazol-5-amine] |
| < 0.5 | O=C(c1ccc(-c2cccc(S(=O)(=O)NC3CC3)c2)cc1Cl)N1CCN(C(=O)C2(O)CC2)CC1 [3-[3-chloro-4-({4-[(1-hydroxycyclopropyl)carbonyl]piperazin-1-yl}carbonyl)phenyl]-N-cyclopropylbenzene-1-sulfonamide] |
| < 0.5 | CNC(=O)c1cccc(-c2ccc(C(=O)N3CCN(C(=O)C4(O)CC4)CC3)cc2)c1 [3-{4-[4-(1-hydroxycyclopropanecarbonyl)piperazine-1-carbonyl]phenyl}-N-methylbenzamide] |
| < 0.5 | N#CC1(c2cccc(-c3ccc(C(=O)N4CCN(C(=O)C5(O)CC5)CC4)cc3)c2)CCOCC1 [4-(3-{4-[4-(1-hydroxycyclopropanecarbonyl)piperazine-1-carbonyl]phenyl}phenyl)oxane-4-carbonitrile] |
| < 0.5 | CN1C(=O)Cc2c(-c3ccc(C(=O)N4CCN(C(=O)C5(O)CC5)CC4)cc3)cccc21 [4-{4-[4-(1-hydroxycyclopropanecarbonyl)piperazine-1-carbonyl]phenyl}-1-methyl-2,3-dihydro-1H-indol-2-one] |
| < 0.5 | NC(=O)c1cc2cc(-c3ccc(C(=O)N4CCN(C(=O)C5(O)CC5)CC4)cc3)ccc2[nH]1 [5-[4-({4-[(1-hydroxycyclopropyl)carbonyl]piperazin-1-yl}carbonyl)phenyl]-1H-indole-2-carboxamide] |
| < 0.5 | Nc1noc2ccc(-c3ccc(C(=O)N4CCN(C(=O)C5(N)CC5)CC4)cc3)cc12 [5-{4-[4-(1-aminocyclopropanecarbonyl)piperazine-1-carbonyl]phenyl}-1,2-benzoxazol-3-amine] |
| < 0.5 | O=C(c1ccc(-c2cc(Cl)cc3[nH]c(=O)[nH]c23)cc1)N1CCN(C(=O)C2(O)CC2)CC1 [6-chloro-4-{4-[4-(1-hydroxycyclopropanecarbonyl)piperazine-1-carbonyl]phenyl}-2,3-dihydro-1H-1,3-benzodiazol-2-one] |
| < 0.5 | N#Cc1ccc2cc(C3CCN(C(=O)N4CCN(C(=O)C5(O)CC5)CC4)CC3)ccc2c1 [6-{1-[4-(1-hydroxycyclopropanecarbonyl)piperazine-1-carbonyl]piperidin-4-yl}naphthalene-2-carbonitrile] |
| < 0.5 | Cn1nc(O)c2ccc(-c3ccc(C(=O)N4CCN(C(=O)C5(O)CC5)CC4)cc3)cc21 [6-{4-[4-(1-hydroxycyclopropanecarbonyl)piperazine-1-carbonyl]phenyl}-1-methyl-1H-indazol-3-ol] |

Same assay, conditions: FASN enzymatic assay; Table 2-2

| IC50 [µM] | SMILES |
| --- | --- |
| 0.5 to 5 | CC(C)NC(=O)c1ccc(F)c(-c2ccc(C(=O)N3CCN(C(=O)C4(O)CC4)CC3)cc2)c1 [4-fluoro-3-[4-({4-[(1-hydroxycyclopropyl)carbonyl]piperazin-1-yl}carbonyl)phenyl]-N-(propan-2-yl)benzamide] |
| 0.5 to 5 | CNC(=O)c1ccc(F)c(-c2ccc(C(=O)N3CCN(C(=O)C4(O)CC4)CC3)cc2)c1 [4-fluoro-3-[4-({4-[(1-hydroxycyclopropyl)carbonyl]piperazin-1-yl}carbonyl)phenyl]-N-methylbenzamide] |
| 0.5 to 5 | O=C(c1ccc(-c2ccc3oc(=O)[nH]c3c2)cc1)N1CCN(C(=O)C2(O)CC2)CC1 [5-[4-({4-[(1-hydroxycyclopropyl)carbonyl]piperazin-1-yl}carbonyl)phenyl]-2,3-dihydro-1,3-benzoxazol-2-one] |
| 0.5 to 5 | O=C(c1ccc(-c2ccc3[nH]c(=O)oc3c2)cc1)N1CCN(C(=O)C2(O)CC2)CC1 [6-[4-({4-[(1-hydroxycyclopropyl)carbonyl]piperazin-1-yl}carbonyl)phenyl]-2,3-dihydro-1,3-benzoxazol-2-one] |

Same assay, conditions: FASN enzymatic assay; Table 2-3

| IC50 [µM] | SMILES |
| --- | --- |
| ≥ 5 | N#Cc1cc(F)ccc1-c1ccc(C(=O)N2CCN(C(=O)C3(O)CC3)CC2)cc1 [5-fluoro-2-[4-({4-[(1-hydroxycyclopropyl)carbonyl]piperazin-1-yl}carbonyl)phenyl]benzonitrile] |

Reference: patent US10457655B2, “Compounds and compositions for inhibition of FASN” (FORMA Therapeutics, Inc., priority 2013, dated 2019)
